Patent publication US20050020542A1, “Method of modulating sodium ion absorption in epithelial cells” (priority 2001, published 2005)

Columns and labels:
[1] = tested on: calcium-activated Cl- channel; experiment: Perforated patch whole cell recording of Cl- current; format: cell-based, human
Description: In FIGS. 4A and 4B, the response to 10 μM INO-E2 is contrasted with the response to ATP.

[2] = tested on: human CF nasal epithelia; experiment: Blue Dextran volume transport assay (fluid absorption); format: cell-based; conditions: for inhibition of fluid absorption, dose response: Blue Dextran Assay, 18 hrs apical exposure
Text: In normal human airway epithelia, Na^+ and Cl^− currents (CFTR and Ca^2+-activated Cl^− currents) contribute to airway surface liquid (ASL) fluid volume regulation depending on signaling equilibria. In contrast, in human CF airway epithelia, Na^+ currents through ENaC dominate basal ASL volume regulation accompanied by a relatively minor contribution through Ca^2+-activated Cl^− currents. The combination of enhanced ENaC currents and transient Ca^2+-activated Cl^− currents in CF result in an inadequate hydration of the ASL and reduction of mucociliary clearance. Since INO-E2 reduces Na^+ transport through ENaC, we hypothesized that INO-E2 would have a functional effect, similar to amiloride, and inhibit fluid absorption. To test this hypothesis, we exposed well differentiated monolayer cultures of CF nasal epithelia to an apically applied buffer containing INO-E2 and a known concentration of the non-permeable molecule Blue Dextran (BD). The resulting reduction in the ability of these monolayers to concentrate BD was taken as a functional indicator of INO-E2's involvement in the inhibition of ENaC.
HEPES Modified Ringer's Buffer (HMRB) was used for these assays. HMRB was sterilized by positive pressure filtration through a 0.2 um syringe tip filter (Gelman acrodisc). The BD stock solution was aseptically prepared with sterile buffer (2 mg BD/ml buffer). Compounds to be tested were solubilized in sterile HMRB containing 1 μM BD (final concentration of vehicle is 0.1% (1:1, DMSO+DMSO containing 5% pluronic-F127). […] A standard concentration curve was obtained by determining the optical densities of a serial dilution of 10 μM Blue Dextran in HMRB placed in a Falcon 3027 96-well plate. The optical density of BD in the solution was obtained by analysis at 660 nm in a Packard Spectracount. Standards and samples were analyzed on the same plate. 50 μl volumes were used for all samples and standards. The [BD] of the samples was determined by extrapolation from the standard curve using the Packard I-Smart software. The increase in [BD] from the starting value of 1 μM was taken to be an indication of the magnitude of volume absorption occurring across the monolayer. The rate of absorption was calculated by dividing the change in volume by the duration of the experiment. This value was normalized to a surface area of 1 cm^2, to give μl·cm^2−1·hr^−1. To address evaporative loss, which would appear in the data as artificially high absorptive rates, dummy membranes were constructed by attaching a thin Sylgard sheet to snapwells/transwells with silicon sealant. These dummy membranes were used in parallel with the epithelial monolayers to assess evaporative loss for each experiment.

In the case of `O=C(O)c1cccnc1Nc1cccc(C(F)(F)F)c1` [niflumic acid, reference compound], the “block of INO-E2 mediated whole cell current” value ([1]; 100 μM) is reported as “completely blocked”.
In the case of `CCCC(=O)OC1C(OCCCc2ccccc2)C(OP(=O)(OCOC(=O)CC)OCOC(=O)CC)C(OP(=O)(OCOC(=O)CC)OCOC(=O)CC)C(OP(=O)(OCOC(=O)CC)OCOC(=O)CC)C1OP(=O)(OCOC(=O)CC)OCOC(=O)CC` (stereo not shown) [INO-4997, 2-O-butyryl-1-O-(3-phenylpropyl)-myo-inositol 3,4,5,6-tetrakis-phosphate octakis (propionoxymethyl) ester], the “activity on fluid absorption as share of activity of 100 μM amiloride” value ([2]; 1 μM) is reported as 50% and the “inhibition of fluid absorption, dose response” value (shortened to “inhibition … dose response”) [2] is reported as “dose dependent inhibition of fluid absorption”.
`CCCC(=O)OC1C(OP(=O)(OCOC(=O)CC)OCOC(=O)CC)C(OC(=O)CCC)C(OP(=O)(OCOC(=O)CC)OCOC(=O)CC)C(OC(=O)CCC)C1OP(=O)(OCOC(=O)CC)OCOC(=O)CC` (stereo not shown) [INO-4992, 2,4,6-tri-O-butyryl-myo-inositol 1,3,5-trisphosphate hexakis (propionoxymethyl) ester] was tested, and the “potency on fluid absorption relative to 100 μM amiloride” value ([2]; 5 uM) was “nearly as potent as 100 μM amiloride” and the “inhibition … dose response” value [2] was “dose dependent inhibition of fluid absorption”.
For `Nc1ncnc2c1ncn2[C@@H]1O[C@H](COP(=O)(O)OP(=O)(O)OP(=O)(O)O)[C@@H](O)[C@H]1O` [ATP, adenosine triphosphate, reference compound], the “further increase in whole cell chloride current after INO-E2” value ([1]; ATP contrasted with 10 μM INO-E2) was “no further increase”.
For `CCC(=O)OCOP(=O)(OCOC(=O)CC)OC1C2OC3(CC4CCC3(C)C4(C)C)OC2C(OP(=O)(OCOC(=O)CC)OCOC(=O)CC)C(OP(=O)(OCOC(=O)CC)OCOC(=O)CC)C1OP(=O)(OCOC(=O)CC)OCOC(=O)CC` (stereo not shown) [INO-4984, 2,3-camphanylidene-myo-inositol 1,4,5,6-tetrakisphosphate octakis (propionoxymethyl) ester], the “potency on fluid absorption relative to 100 μM amiloride” value ([2]; 100 μM) was “more potent than 100 μM amiloride” and the “inhibition … dose response” value [2] was “dose dependent inhibition of fluid absorption”.
For `CCCC(=O)OC1C(OC(=O)CCC)C(OP(=O)(OCOC(=O)CC)OCOC(=O)CC)C(OP(=O)(OCOC(=O)CC)OCOC(=O)CC)C(OC(=O)CCC)C1OP(=O)(OCOC(=O)CC)OCOC(=O)CC` (stereo not shown) [INO-4982, 2,3,5-tri-O-butyryl-myo-inositol 1,4,6-trisphosphate hexakis (propionoxymethyl) ester], the “inhibition … dose response” value [2] was “dose dependent inhibition of fluid absorption”.
`N=C(N)NC(=O)c1nc(Cl)c(N)nc1N` [amiloride, reference compound] was tested, and the “inhibition … dose response” value [2] was “inhibited fluid absorption measured by the Blue Dextran assay in a dose dependent fashion”.
For `CCCC(=O)OC1C(OP(=O)(OCOC(=O)CC)OCOC(=O)CC)C(OC(=O)CCC)C(OP(=O)(OCOC(=O)CC)OCOC(=O)CC)C(OP(=O)(OCOC(=O)CC)OCOC(=O)CC)C1OP(=O)(OCOC(=O)CC)OCOC(=O)CC` (stereo not shown) [INO-230, 2,6-Di-O-butyryl-myo-inositol 1,3,4,5-tetrakisphosphate octakis(propionoxymethyl) ester], the “inhibition of fluid absorption 42 hrs after exposure” value ([2]; 10 μM, 2 hr exposure, measured 42 hrs after) was “significantly inhibits”, the “change of potency on fluid absorption with repeat administration” value ([2]; 2 hours each day for 8 days at 0.1 μM or 1 μM, n=6) was “enhancement of compound potency” and the “inhibition … dose response” value [2] was “dose dependent inhibition of fluid absorption”. For the same molecule, the “relative potency on fluid absorption after pulsed exposure” value ([2]; INO-230 vs INO-E2) was “more potent than INO-E2”, the “duration of effect on fluid secretion following a brief (pulsed) exposure” value ([2]; pulsed exposure, FIG. 17) was “prolonged effects” and the “potency of inhibition of fluid absorption on repeated exposure” value ([2]; repeated apical low doses over 96-192 hours, FIG. 17) was “nanomolar range”.
With `CCC(=O)OCOP(=O)(OCOC(=O)CC)OC1C2OC3(CC4CCC3(C)C4(C)C)OC2C(OP(=O)(OCOC(=O)CC)OCOC(=O)CC)C(OP(=O)(OCOC(=O)CC)OCOC(=O)CC)C1OP(=O)(OCOC(=O)CC)OCOC(=O)CC` (stereo not shown) [INO-4996, 1,2-camphanylidene-myo-inositol 3,4,5,6-tetrakisphosphate octakis (propionoxymethyl) ester] the “inhibition … dose response” value [2] was “dose dependent inhibition of fluid absorption”.
`CCCC(=O)OC1C(OC(=O)CCC)C(OP(=O)(OCOC(=O)CC)OCOC(=O)CC)C(OP(=O)(OCOC(=O)CC)OCOC(=O)CC)C(OC(=O)CCC)C1OP(=O)(OCOC(=O)CC)OCOC(=O)CC` (stereo not shown) [INO-4981, 1,2,5-tri-O-butyryl-myo-inositol 3,4,6-trisphosphate hexakis (propionoxymethyl) ester] was tested, and the “inhibition … dose response” value [2] was “dose dependent inhibition of fluid absorption”.
With `CCCCCCCCOC1C(OC(=O)CCC)C(OP(=O)(OCOC(=O)CC)OCOC(=O)CC)C(OP(=O)(OCOC(=O)CC)OCOC(=O)CC)C(OP(=O)(OCOC(=O)CC)OCOC(=O)CC)C1OP(=O)(OCOC(=O)CC)OCOC(=O)CC` (stereo not shown) [INO-4987, 2-O-butyryl-3-O-octyl-myo-inositol 1,4,5,6-tetrakisphosphate octakis (propionoxymethyl) ester] the “inhibition … dose response” value [2] was “dose dependent inhibition of fluid absorption”.
